{
  "source": "paper PMC12127550",
  "about": "(The Journal of Biological Chemistry, 2025)",
  "molecules": {"B1": {"name": "Sb5: synthetic nanobody (sybody) that binds to OATP1B1 in both its apo and cyclosporine A-bound forms (antibody, V domains shown)", "VH": "QVQLVESGGGLVQAGGSLRLSCAASGFPVNLSYMHWYRQAPGKEREWVAAISSWGWHTEYADSVKGRFTISRDNAKNTVYLQMNSLKPEDTAVYYCHVRVGRSYFGQGTQVSVSA"}},
  "key": {"OATP1B1 [1]": {"tested_on": "OATP1B1", "details": "cited from earlier work"}, "OATP1B3 F555H": {"tested_on": "OATP1B3 F555H", "details": "F555H mutation; cited from earlier work"}, "OATP1B1 H555F": {"tested_on": "OATP1B1 H555F", "details": "H555 F variant; cited from earlier work"}, "OATP1B1 [2]": {"tested_on": "OATP1B1", "assay_type": "cell-based, human", "details": "HEK293 over-expressing OATP1B1; substrate not specified at the place"}},
  "note": "Entries after “also recorded” stand apart in the source; their conditions may differ. Where two headings read alike, the source gives them in different places.",
  "data": [
    {"molecule": "C=CC1=C(C)/C(=C/c2[nH]c(Cc3[nH]c(/C=C4\\NC(=O)C(C)=C4C=C)c(C)c3CCC(=O)O)c(CCC(=O)O)c2C)NC1=O", "note": "[bilirubin]", "values": [
      {"measurement": "inhibition of and transport by OATP1B1", "setting": "OATP1B1 [1]; no reference given", "value": "is a natural transport substrate, but does not inhibit transport"}
    ]},
    {"molecule": "CO[C@H]1/C=C/O[C@@]2(C)Oc3c(C)c(O)c4c(O)c(c(/C=N/N5CCN(C)CC5)c(O)c4c3C2=O)NC(=O)/C(C)=C\\C=C\\[C@H](C)[C@H](O)[C@@H](C)[C@@H](O)[C@@H](C)[C@H](OC(C)=O)[C@@H]1C", "note": "[rifampicin]", "values": [
      {"measurement": "inhibition of and transport by OATP1B1", "setting": "OATP1B1 [1]", "value": "both inhibits and is transported by OATP1B1"}
    ]},
    {"molecule": "O=C(O[C@@H]1Cc2c(O)cc(O)cc2O[C@@H]1c1cc(O)c(O)c(O)c1)c1cc(O)c(O)c(O)c1", "note": "[EGCG, epigallocatechin gallate]", "values": [
      {"measurement": "EGCG transport by OATP1B3", "setting": "OATP1B3 F555H", "value": "significantly reduced"}
    ]},
    {"molecule": "cholecystokinin-8: called an OATP1B1-specific substrate", "values": [
      {"measurement": "uptake by OATP1B1", "setting": "OATP1B1 H555F", "value": "abolished"}
    ]},
    {"molecule": "B1", "values": [
      {"measurement": "inhibition of OATP1B1 substrate transport", "setting": "OATP1B1 [2]", "value": "does not impair the ability of OATP1B1 to transport substrates; also recorded: did not inhibit substrate transport by OATP1B1"}
    ]}
  ]
}
